Data as given in patent US9273043B2, “TRPV1 antagonists including dihydroxy substituent and uses thereof” (Purdue Pharma L.P., priority 2011, dated 2016).

Legend:
[1] = In vivo assay of body temperature increase (rectal body temperature); parameters: species or system rat; settings: rats, oral, 10 mL/kg of 1 mg/mL in 0.5% methylcellulose; greatest ΔTb versus vehicle control at 0.5, 1 or 2 hrs
Procedure, shortened: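 Male Crl/SD rats (7 weeks), acclimated and preselected for rectal temperature 37.0–37.7° C., given compound orally once at 1 mg/mL in 0.5% methylcellulose, 10 mL/kg. Rectal temperature by thermistor at 0.5, 1 and 2 h post-dose; ΔTb = treated group mean minus vehicle group mean, maximum across time points reported.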

[2] = target: human TRPV1 (Homo sapiens (Human), UniProt Q8NER1); experiment: Human TRPV1 heat-based assay, hTRPV1/CHO cells (hHeat-CHO); format: cell-based; settings: temperature ramp 25 to 45 °C, mean ± SEM
human TRPV1, sequence (Q8NER1 whole entry, looked up): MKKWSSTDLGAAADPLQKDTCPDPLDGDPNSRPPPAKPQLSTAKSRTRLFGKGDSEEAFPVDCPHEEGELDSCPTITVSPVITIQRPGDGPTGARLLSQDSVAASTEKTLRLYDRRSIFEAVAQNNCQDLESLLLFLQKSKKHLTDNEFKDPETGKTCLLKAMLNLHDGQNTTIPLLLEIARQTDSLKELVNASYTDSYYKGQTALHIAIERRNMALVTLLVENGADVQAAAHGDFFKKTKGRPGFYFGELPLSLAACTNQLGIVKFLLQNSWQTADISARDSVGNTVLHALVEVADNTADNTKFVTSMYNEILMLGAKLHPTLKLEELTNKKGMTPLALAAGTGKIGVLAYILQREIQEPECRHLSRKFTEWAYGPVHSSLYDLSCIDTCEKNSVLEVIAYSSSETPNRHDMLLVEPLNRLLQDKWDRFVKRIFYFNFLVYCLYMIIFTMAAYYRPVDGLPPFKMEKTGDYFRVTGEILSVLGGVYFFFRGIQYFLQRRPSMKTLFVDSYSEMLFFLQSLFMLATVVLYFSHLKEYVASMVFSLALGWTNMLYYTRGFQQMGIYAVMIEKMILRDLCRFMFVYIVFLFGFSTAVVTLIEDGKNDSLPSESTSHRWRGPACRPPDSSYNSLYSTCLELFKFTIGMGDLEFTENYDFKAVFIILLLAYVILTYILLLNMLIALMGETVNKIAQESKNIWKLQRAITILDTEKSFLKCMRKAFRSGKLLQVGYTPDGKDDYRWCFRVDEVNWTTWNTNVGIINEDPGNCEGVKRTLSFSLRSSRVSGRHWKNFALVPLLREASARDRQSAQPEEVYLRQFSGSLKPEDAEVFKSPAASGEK
Experimental: Human TRPV1 Heat-based Assay:
CHO cells stably expressing human TRPV1 (hTRPV1) were used. Functional assessment of heat-induced activation of hTRPV1 was carried out in a cell-based Ca^2+ flux assay using ABI7500 Fast Real-Time PCR System as described in Reubish et al., “Functional assessment of temperature-gated ion-channel activity using a real-time PCR machine,” www.BioTechniques.com 47(3):iii-ix (2009), which is hereby incorporated by reference. Briefly, hTRPV1/CHO cells were cultured in growth media in a tissue culture dish at 37° C. in a CO2 incubator. On the day of the assay, culture media were removed and the cells were then detached using 0.05% trypsin at 37° C. with 5% CO2, for 90 s. The detached cells were centrifuged (1000 rpm, 4 min) to remove trypsin-containing supernatant and resuspended in assay buffer (115 mM NaCl, 5.4 mM KCl, 0.8 mM MgCl2.6H2O, 1.8 mM CaCl2.2H2O, 13.8 mM D-glucose, and 20 mM HEPES). Then, the cells were loaded with 5 μM Fluo-4, a Ca^2+ reporter dye, in the presence of 2.5 mM probenecid at 37° C. with 5% CO2, for 45 min. Thereafter, the cells were washed twice with measuring buffer (assay buffer supplemented with 0.1% BSA and 3.2 mM CaCl2) then transferred to a Fast 96-well Reaction Plate (0.1 mL) (Part no. 4346907, MICROAMP, Applied Biosystems, Foster City, Calif.). The cell density was 100,000 cells/24 μL/well. A solution of the compound under test (6 μL/well) was added into each well of the 96-well plate. Thus, the reaction volume per well was 30 μL.
The plates were then placed inside an ABI7500 Fast Real-Time PCR instrument (Applied Biosystems) to read fluorescence at different temperatures using 7500 software, version 2.0.2 (Applied Biosystems). The initial temperature was set at 25° C. for 1 min. followed by a temperature ramp to 45° C. in 100 s to deliver heat to cells. [Ca^2+], response of hTRPV1/CHO cells to heat was determined as: [fluorescence read at 45° C.−fluorescence read at 25° C.].
Compound concentration response curves and IC50 values were analyzed using GraphPad Prism 4 software (GraphPad Software, La Jolla, Calif.).
The IC50 data provided in Table 6 are shown as mean±standard error of the mean; the number of trials conducted for each assay is shown in parentheses except for only a single trial where no number of trials is shown in parentheses.

| SMILES | ΔTb, body temperature increase [1] | IC50 [2] |
| --- | --- | --- |
| C[C@H]1CN(c2ncc([C@H](O)CO)cc2F)CCN1C(=O)Nc1nc2ccccc2s1 [A122(a), (S)—N-(benzo[d]thiazol-2-yl)-4-(5-((S)-1,2-dihydroxyethyl)-3-fluoropyridin-2-yl)-2-methylpiperazine-1-carboxamide] | 0.4 °C | – |
| C[C@@H]1CN(C(=O)Nc2nc3ccc(F)cc3s2)CCN1c1ncc([C@H](O)CO)cc1F [A125(b), (R)-4-{5-[(S)-1,2-dihydroxyethyl]-3-fluoropyridin-2-yl}-N-(6-fluorobenzo[d]thiazol-2-yl)-3-methylpiperazine-1-carboxamide] | 0.1 °C | 389 ± 83 nM |
| Cc1ccc2nc(NC(=O)N3CCN(c4ncc([C@H](O)CO)cc4F)C[C@@H]3C)sc2c1 [A126(a), (S)-4-(5-((S)-1,2-dihydroxyethyl)-3-fluoropyridin-2-yl)-2-methyl-N-(6-methylbenzo[d]thiazol-2-yl)piperazine-1-carboxamide] | 0.2 °C | – |
| C[C@H]1CN(c2ncc([C@H](O)CO)cc2F)CCN1C(=O)Nc1nc2cc(F)c(F)cc2s1 [A158(a), (S)—N-(5,6-difluorobenzo[d]thiazol-2-yl)-4-(5-((S)-1,2-dihydroxyethyl)-3-fluoropyridin-2-yl)-2-methylpiperazine-1-carboxamide] | 0.4 °C | – |
| C[C@@H]1CN(C(=O)Nc2nc3cc(F)c(F)cc3s2)CCN1c1ncc([C@H](O)CO)cc1F [AE, (R)—N-(5,6-difluorobenzo[d]thiazol-2-yl)-4-{5-[(S)-1,2-dihydroxyethyl]-3-fluoropyridin-2-yl}-3-methylpiperazine-1-carboxamide] | 0.5 °C | 101.5 ± 0.8 nM |
| C[C@H](O)[C@@H](O)c1cnc(N2CCN(C(=O)Nc3nc4cc(F)c(F)cc4s3)C[C@H]2C)c(F)c1 [B158(j), (R)—N-(5,6-difluorobenzo[d]thiazol-2-yl)-4-{5-[(1S,2S)-1,2-dihydroxypropyl]-3-fluoropyridin-2-yl}-3-methylpiperazine-1-carboxamide] | 0.1 °C | – |
| C[C@H](O)[C@@H](O)c1cnc(N2CCN(C(=O)Nc3nc4ccc(F)cc4s3)CC2)c(Cl)c1 [C4(r), 4-{3-Chloro-5-[(1S,2S)-1,2-dihydroxypropyl]pyridin-2-yl}-N-(6-fluorobenzo[d]thiazol-2-yl)piperazine-1-carboxamide] | 0.3 °C | 87 ± 13 nM |
| C[C@H](O)[C@@H](O)c1cnc(N2CCN(C(=O)Nc3nc4ccc(F)cc4s3)CC2)c(F)c1 [C125(r), 4-(5-((1S,2S)-1,2-dihydroxypropyl)-3-fluoropyridin-2-yl)-N-(6-fluorobenzo[d]thiazol-2-yl)piperazine-1-carboxamide] | 0.3 °C | 335 ± 40 nM |
| Cc1ccc2nc(NC(=O)N3CCN(c4ncc([C@H](O)[C@H](C)O)cc4F)CC3)sc2c1 [C126(r), 4-[5-((1S,2S)-1,2-Dihydroxy-propyl)-3-fluoro-pyridin-2-yl]piperazine-1-carboxylic acid (6-methyl-benzothiazol-2-yl)-amide] | 0.4 °C | 155 ± 25 nM |
| Cc1cc2nc(NC(=O)N3CCN(c4ncc([C@H](O)[C@H](C)O)cc4F)CC3)sc2cc1C [C170(r), 4-(5-((1S,2S)-1,2-dihydroxypropyl)-3-fluoropyridin-2-yl)-N-(5,6-dimethylbenzo[d]thiazol-2-yl)piperazine-1-carboxamide] | 0.2 °C | 170 ± 20 nM |
